Columns and labels:
SIRT1 = molecular target: T1, SIRT1 (Homo sapiens, UniProt Q96EB6); assay: Modified Fluor de Lys fluorescence-based assay, SIRT1; format: biochemical; conditions: from 200 μM; p53 379-382 AMC substrate, NAD+
T1 construct: host or cells: E. coli
Protocol: (§1) The newly synthesized compounds 4a–n were tested to determine their effects against acetylation and methylation epigenetic targets. First, 4a–n were screened in vitro against the two HAT enzymes p300 and PCAF. […] To determine the activity against SIRT1 and -2, 4a–n were tested starting from 200 μM solutions using a modified Fluor de Lys fluorescence-based assay with amino acids 379–382 (Arg-His-Lys-Lys(Ac)) of human p53 conjugated with aminomethylcoumarin as substrate and NAD^+ as co-substrate. […] Furthermore, 4a–n were tested against a human five-membered Polycomb repressive complex 2 (PRC2) containing EZH2, embryonic ectoderm development (EED), suppressor of zeste 12 (SUZ12), RbAp48, and adipocyte enhancer-binding protein (AEBP2), to assess their capability to inhibit the catalytic unit EZH2.
(§2) The SIRT inhibition assay was performed using human recombinant SIRT1 and SIRT2 produced in E. coli. Compounds were tested using a modified Fluor de Lys fluorescence-based assay kit based on the method described in the BioMol product sheet (AK-555, AK-556, Milan, Italy). […] The second stage is initiated by the addition of the Developer II (KI176), including nicotinamide (NAM), nicotinamide that stops the SIRT1/2 activity, and the fluorescent signal is produced. The fluorescence was measured on a fluorometric reader (Infinite 200 TECAN, Männedorf, Switzerland) with excitation set at 360 nm and emission detection set at 460 nm.

p300 = molecular target: T2, p300 (Homo sapiens, UniProt Q09472); assay: HotSpot HAT activity assay, p300; format: biochemical; conditions: 10-dose, triplicate, from 200 μM; histone H3, [acetyl-3H]-acetyl-CoA
T2 construct: p300 (aa 1284–1673, 30 nM); purchased Reaction Biology Corporation
T2 sequence (Q09472 1284-1673): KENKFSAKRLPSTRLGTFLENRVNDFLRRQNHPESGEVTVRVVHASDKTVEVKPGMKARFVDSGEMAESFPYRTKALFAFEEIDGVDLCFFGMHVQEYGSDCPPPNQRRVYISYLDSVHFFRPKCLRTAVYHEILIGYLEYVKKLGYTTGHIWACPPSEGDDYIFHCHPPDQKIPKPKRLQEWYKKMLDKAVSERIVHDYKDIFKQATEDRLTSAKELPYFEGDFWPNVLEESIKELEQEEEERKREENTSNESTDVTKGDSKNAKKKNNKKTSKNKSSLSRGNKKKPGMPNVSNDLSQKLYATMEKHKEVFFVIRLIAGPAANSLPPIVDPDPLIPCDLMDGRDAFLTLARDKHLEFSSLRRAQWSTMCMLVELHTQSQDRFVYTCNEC
Protocol: as §1
The effect of tested derivatives on the catalytic activity of p300 and PCAF was determined in a HotSpot HAT activity assay by Reaction Biology Corporation (Malvern, PA, USA) according to the company’s standard operating procedure. In brief, the recombinant catalytic domains of PCAF (aa 492–658, 250 nM) or p300 (aa 1284–1673, 30 nM) were incubated with histone H3 as substrate (5 µM) and [Acetyl-^3H]-Acetyl Coenzyme A (3 µM) as an acetyl donor in reaction buffer (50 mM Tris-HCl (pH 8.0), 50 mM NaCl, 0.1 mM EDTA, 1 mM DTT, 1 mM PMSF, 1% DMSO) for 1 h at 30 °C in the presence or absence of a dose titration of the compounds. The reaction mixture was delivered to filter-paper for detection. IC50 values were analyzed using Excel and GraphPad Prism 6.0 software (GraphPad Software Inc., San Diego, CA, USA). The experiments for p300 were performed in triplicate.

PRC2/EZH2 = PRC2/EZH2 (Homo sapiens, UniProt Q15910); assay: EZH2/PRC2 assay (core histone, 3H-SAM); format: biochemical; conditions: 10-dose, duplicate, from 400 μM
Protocol: as §1
The EZH2 substrate (0.05 mg/mL core histone) was added in the freshly prepared reaction buffer (50 mM Tris-HCl (pH 8.0), 50 mM NaCl, 1 mM EDTA, 1 mM DTT, 1 mM PMSF, 1% DMSO). The PRC2 complex (complex of human EZH2, human EED, human SUZ12, human AEBP2, and human RbAp48) was delivered into the substrate solution and the mixture was mixed gently. Afterwards, the tested compounds dissolved in DMSO were delivered into the enzyme/substrate reaction mixture by using Acoustic Technology (Echo 550, LabCyte Inc. Sunnyvale, CA, USA) in nanoliter range, and ^3H-SAM was added into the reaction mixture to initiate the reaction. The reaction mixture was incubated for 1 h at 30 °C and then it was delivered to filter-paper for detection. The data were analyzed using Excel and GraphPad Prism software for IC50 curve fits. The experiments were performed in duplicate.

MCF-7 cells = assay: Cell cycle and apoptosis (sub-G1) analysis by FACS in MCF-7 cells; format: cell-based, human; conditions: 5 μM, 30 h
Protocol: Compounds 4a–n were tested at 5 μM for 30 h in NB4 […] and U937 AML cells among hematological cancers, and in MCF-7 breast cancer and SH-SY5Y neuroblastoma cells among solid cancers, to determine their effects in cell cycle and apoptosis induction.
In the same cell lines, the induction of apoptosis has been evaluated through the percentage of the sub-G1 peaks.
For colorimetric exclusion, the cells (2 × 10^5 cells/mL) were plated in multiwells in triplicate. After stimulations at different times and concentrations, cells were diluted in the ratio 1:1 in Trypan Blue (Sigma) and counted with an optical microscope. For cell cycle analyses, cells were plated (2 × 10^5 cells/mL) and were harvested, centrifuged at 1200 rpm for 5 min and resuspended in 500 μL of a hypotonic solution containing 1× PBS, Sodium Citrate 0.1%, 0.1% NP-40, RNAase A and […] Propidium Iodide (PI). After 30 min at room temperature (RT) in the dark, samples were acquired by FACS-Calibur (BD Bioscences, San Jose, CA, USA) using CellQuest software (BD Biosciences). The percentage in different phases of the cell cycle was determined by ModFit LT V3 software (Verity). All experiments were performed in triplicate. Cell death was measured as percentage of cells in sub-G1 phase as in [30].

SIRT2 = molecular target: T3, SIRT2 (Homo sapiens, UniProt Q8IXJ6); assay: Modified Fluor de Lys fluorescence-based assay, SIRT2; format: biochemical; conditions: from 200 μM; p53 379-382 AMC substrate, NAD+
T3 construct: host or cells: E. coli
Protocol: as §1, §2

Sequence of PRC2/EZH2 (Q15022 whole entry): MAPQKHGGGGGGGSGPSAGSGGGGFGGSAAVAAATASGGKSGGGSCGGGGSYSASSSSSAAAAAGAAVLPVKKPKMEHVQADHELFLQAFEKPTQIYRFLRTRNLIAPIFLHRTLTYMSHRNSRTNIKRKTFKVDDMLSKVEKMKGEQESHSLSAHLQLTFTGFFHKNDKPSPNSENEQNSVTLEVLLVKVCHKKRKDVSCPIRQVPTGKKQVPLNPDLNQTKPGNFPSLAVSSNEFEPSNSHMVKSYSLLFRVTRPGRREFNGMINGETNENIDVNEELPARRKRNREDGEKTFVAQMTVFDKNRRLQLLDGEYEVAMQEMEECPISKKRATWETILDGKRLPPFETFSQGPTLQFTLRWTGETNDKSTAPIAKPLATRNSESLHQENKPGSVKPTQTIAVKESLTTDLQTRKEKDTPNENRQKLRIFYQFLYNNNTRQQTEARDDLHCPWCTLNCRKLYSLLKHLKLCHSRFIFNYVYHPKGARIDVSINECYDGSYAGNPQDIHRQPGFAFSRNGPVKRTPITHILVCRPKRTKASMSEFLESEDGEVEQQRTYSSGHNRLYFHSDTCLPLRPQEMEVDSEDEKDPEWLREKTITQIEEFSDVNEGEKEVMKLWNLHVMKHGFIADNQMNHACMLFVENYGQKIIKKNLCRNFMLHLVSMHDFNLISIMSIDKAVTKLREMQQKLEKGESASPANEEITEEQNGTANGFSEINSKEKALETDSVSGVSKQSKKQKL
Sequence of PRC2/EZH2 (Q09028 whole entry, further chain): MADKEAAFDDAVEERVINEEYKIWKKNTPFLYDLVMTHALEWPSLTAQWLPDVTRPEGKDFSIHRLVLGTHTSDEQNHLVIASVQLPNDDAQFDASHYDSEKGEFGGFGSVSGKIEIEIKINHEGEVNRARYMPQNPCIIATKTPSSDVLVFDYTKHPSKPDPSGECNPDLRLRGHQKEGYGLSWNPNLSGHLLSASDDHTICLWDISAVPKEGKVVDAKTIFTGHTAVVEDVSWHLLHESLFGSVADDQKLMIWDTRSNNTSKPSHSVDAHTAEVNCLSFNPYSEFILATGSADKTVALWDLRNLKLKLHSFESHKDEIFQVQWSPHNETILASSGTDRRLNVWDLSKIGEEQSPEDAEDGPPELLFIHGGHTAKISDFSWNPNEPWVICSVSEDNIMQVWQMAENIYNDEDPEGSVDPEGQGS
Sequence of PRC2/EZH2 (Q6ZN18 whole entry, further chain): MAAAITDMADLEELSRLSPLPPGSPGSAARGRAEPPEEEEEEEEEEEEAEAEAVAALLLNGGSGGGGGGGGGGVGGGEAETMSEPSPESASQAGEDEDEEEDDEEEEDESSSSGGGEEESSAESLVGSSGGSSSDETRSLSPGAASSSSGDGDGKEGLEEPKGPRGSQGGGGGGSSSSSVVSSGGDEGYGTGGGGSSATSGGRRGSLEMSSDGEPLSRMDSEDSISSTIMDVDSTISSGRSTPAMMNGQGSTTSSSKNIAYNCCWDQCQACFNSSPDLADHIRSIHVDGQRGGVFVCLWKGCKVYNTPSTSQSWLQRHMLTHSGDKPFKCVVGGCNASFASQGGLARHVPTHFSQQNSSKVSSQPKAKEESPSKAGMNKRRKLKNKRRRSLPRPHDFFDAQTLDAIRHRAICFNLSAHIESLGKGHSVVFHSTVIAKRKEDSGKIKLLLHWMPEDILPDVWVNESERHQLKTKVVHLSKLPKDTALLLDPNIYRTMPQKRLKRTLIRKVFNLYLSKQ
Sequence of PRC2/EZH2 (Q15910 whole entry): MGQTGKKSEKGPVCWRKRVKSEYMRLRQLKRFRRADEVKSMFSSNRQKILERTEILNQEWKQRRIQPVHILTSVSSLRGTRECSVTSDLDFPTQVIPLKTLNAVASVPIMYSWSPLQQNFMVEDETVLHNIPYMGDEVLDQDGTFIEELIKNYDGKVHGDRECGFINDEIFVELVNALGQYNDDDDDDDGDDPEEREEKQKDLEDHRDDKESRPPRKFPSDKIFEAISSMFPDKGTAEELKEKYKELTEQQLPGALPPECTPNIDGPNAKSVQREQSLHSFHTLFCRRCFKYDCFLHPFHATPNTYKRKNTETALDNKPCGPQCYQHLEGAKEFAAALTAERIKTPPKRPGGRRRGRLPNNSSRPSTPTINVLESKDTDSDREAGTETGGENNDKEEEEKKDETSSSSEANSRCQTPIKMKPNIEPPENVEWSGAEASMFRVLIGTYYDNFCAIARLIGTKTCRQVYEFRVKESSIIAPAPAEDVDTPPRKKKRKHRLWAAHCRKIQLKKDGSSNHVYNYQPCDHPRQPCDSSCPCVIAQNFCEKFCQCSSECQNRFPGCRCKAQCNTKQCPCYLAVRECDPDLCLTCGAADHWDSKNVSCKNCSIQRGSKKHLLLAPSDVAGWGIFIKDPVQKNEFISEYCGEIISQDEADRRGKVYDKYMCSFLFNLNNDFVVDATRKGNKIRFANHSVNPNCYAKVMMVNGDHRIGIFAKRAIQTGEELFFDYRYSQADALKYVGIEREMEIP
Sequence of PRC2/EZH2 (O75530 whole entry, further chain): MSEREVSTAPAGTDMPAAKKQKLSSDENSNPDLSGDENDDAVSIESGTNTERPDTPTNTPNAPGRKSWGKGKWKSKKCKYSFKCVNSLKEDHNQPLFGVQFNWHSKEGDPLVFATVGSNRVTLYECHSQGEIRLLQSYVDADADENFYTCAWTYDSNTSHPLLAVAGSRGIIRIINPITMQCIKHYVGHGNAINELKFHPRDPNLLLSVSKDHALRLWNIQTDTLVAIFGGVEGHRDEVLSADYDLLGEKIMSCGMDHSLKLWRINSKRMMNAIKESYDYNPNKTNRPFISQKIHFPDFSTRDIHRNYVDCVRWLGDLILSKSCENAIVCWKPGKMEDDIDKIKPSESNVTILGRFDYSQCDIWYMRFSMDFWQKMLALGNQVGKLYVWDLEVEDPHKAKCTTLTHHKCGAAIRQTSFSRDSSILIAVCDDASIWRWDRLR
T1 sequence (Q96EB6 whole entry): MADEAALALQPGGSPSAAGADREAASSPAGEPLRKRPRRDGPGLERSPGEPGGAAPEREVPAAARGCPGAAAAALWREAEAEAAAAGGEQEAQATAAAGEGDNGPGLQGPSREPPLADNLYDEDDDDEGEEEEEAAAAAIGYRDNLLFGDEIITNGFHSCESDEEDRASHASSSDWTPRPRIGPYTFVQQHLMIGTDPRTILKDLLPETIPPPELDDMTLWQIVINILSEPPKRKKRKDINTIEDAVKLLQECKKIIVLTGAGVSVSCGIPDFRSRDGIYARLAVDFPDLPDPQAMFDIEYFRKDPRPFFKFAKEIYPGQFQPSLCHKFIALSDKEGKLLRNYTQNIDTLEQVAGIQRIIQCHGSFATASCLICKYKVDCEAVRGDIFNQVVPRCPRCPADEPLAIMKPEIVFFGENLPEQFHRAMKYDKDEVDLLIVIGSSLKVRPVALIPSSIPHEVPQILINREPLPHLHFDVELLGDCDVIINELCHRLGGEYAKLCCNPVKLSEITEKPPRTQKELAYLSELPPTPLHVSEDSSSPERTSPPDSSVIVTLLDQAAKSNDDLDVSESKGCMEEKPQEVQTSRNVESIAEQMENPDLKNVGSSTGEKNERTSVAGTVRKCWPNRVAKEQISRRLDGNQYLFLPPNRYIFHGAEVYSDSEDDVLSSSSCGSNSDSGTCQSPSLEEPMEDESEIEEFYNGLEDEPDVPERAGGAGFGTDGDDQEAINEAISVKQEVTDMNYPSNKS
T3 sequence (Q8IXJ6 whole entry): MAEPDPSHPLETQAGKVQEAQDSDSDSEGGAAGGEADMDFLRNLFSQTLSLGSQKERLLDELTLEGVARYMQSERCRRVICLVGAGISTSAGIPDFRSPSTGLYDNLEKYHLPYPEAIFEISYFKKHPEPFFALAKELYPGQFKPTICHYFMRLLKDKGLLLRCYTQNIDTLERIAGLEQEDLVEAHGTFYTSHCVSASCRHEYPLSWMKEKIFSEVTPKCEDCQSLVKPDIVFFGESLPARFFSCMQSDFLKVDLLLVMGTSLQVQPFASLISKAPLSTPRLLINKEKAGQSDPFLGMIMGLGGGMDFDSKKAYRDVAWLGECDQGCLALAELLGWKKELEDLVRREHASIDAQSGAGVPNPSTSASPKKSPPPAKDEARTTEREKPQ

| Structure (SMILES) | IC50 (SIRT1) | IC50 (p300) | IC50 (PRC2/EZH2) | cell cycle: block in G1/S phase with almost total absence of cells in the G2/M phase (MCF-7 cells) | cell cycle: block in G1/S phase with almost total absence of cells in the S phase (MCF-7 cells) | IC50 (SIRT2) | induction of apoptosis, % sub-G1 peaks (MCF-7 cells) |
| --- | --- | --- | --- | --- | --- | --- | --- |
| O=C1/C(=C/c2ccccc2Br)CN(C(=O)C=Cc2ccccc2)C/C1=C\c1ccccc1Br [Compound 4n, 3,5-Bis((E)-2-bromobenzylidene)-1-cinnamoylpiperidin-4-one] | > 200 µM | 1.23 ± 0.29 µM | 13.9 ± 1.8 µM | almost total absence of cells | almost total absence of cells | > 200 µM |  |
| O=C1/C(=C/c2ccccc2Br)CN(C(=O)CCc2ccccc2)C/C1=C\c1ccccc1Br [Compound 4m, 3,5-Bis((E)-2-bromobenzylidene)-1-(3-phenylpropanoyl)piperidin-4-one] | > 200 µM | 0.46 ± 0.1 µM | 11.3 ± 0.08 µM | almost total absence of cells |  | > 200 µM |  |
| O=C1/C(=C/c2ccccc2Br)CN(C(=O)Cc2ccccc2)C/C1=C\c1ccccc1Br [Compound 4l, 3,5-Bis((E)-2-bromobenzylidene)-1-(2-phenylacetyl)piperidin-4-one] | > 200 µM | 0.45 ± 0.03 µM | 15.2 ± 2.2 µM |  | almost total absence of cells | > 200 µM |  |
| O=C1/C(=C/c2ccccc2Br)CN(CCc2ccccc2)C/C1=C\c1ccccc1Br [Compound 4f, 3,5-Bis((E)-2-bromobenzylidene)-1-phenethylpiperidin-4-one] | > 200 µM | 30.2 ± 2.71 µM |  |  |  | > 200 µM |  |
| O=C1/C(=C/c2ccccc2Br)CN(CCCC(=O)c2ccccc2)C/C1=C\c1ccccc1Br [Compound 4j, 3,5-Bis((E)-2-bromobenzylidene)-1-(4-oxo-4-phenylbutyl)piperidin-4-one] | > 200 µM | 2.13 ± 1.35 µM | 68.5 ± 6.2 µM | almost total absence of cells |  | > 200 µM |  |
| O=C1/C(=C/c2ccccc2Br)CN(Cc2ccccc2)C/C1=C\c1ccccc1Br [Compound 4e, 1-benzyl-3,5-bis((E)-2-bromobenzylidene)piperidin-4-one] | > 200 µM | 2.19 ± 0.77 µM | 44.2 ± 0.2 µM | almost total absence of cells |  | > 200 µM |  |
| O=C1/C(=C/c2ccccc2Br)CN(C(=O)c2ccccc2)C/C1=C\c1ccccc1Br [Compound 4k, 1-Benzoyl-3,5-bis((E)-2-bromobenzylidene)piperidin-4-one] | > 200 µM | 2.09 ± 0.79 µM | 40.7 ± 15.3 µM |  | almost total absence of cells | > 200 µM |  |
| O=C1/C(=C/c2ccccc2Br)CN(CC(=O)c2ccccc2)C/C1=C\c1ccccc1Br [Compound 4h, 3,5-Bis((E)-2-bromobenzylidene)-1-(2-oxo-2-phenylethyl)piperidin-4-one] | > 200 µM | 1.03 ± 0.22 µM | 46 ± 8.1 µM |  |  | > 200 µM | around 25% |
| O=C1/C(=C/c2ccccc2Br)CN(CCCc2ccccc2)C/C1=C\c1ccccc1Br [Compound 4g, 3,5-Bis((E)-2-bromobenzylidene)-1-(3-phenylpropyl)piperidin-4-one] | > 200 µM | 40.7 ± 2.39 µM |  |  |  | > 200 µM |  |

Reference: publication PMC7397249, “Properly Substituted Cyclic Bis-(2-bromobenzylidene) Compounds Behaved as Dual p300/CARM1 Inhibitors and Induced Apoptosis in Cancer Cells” (Molecules, 2020)
